This is an account of results in patent publication US6512000B1, “Aminocarbonyl-substituted benzimidazoles having tryptase-inhibitory activity” (Boehringer Ingelheim Pharma KG, priority 1999, dated 2003).

pIC50: −log10 of the molar value. Where a name gives a salt, the structure may show the parent alone.

What is called pIC50 is the negative decadic logarithm of the IC50, by convention in mol/L. Higher therefore signals a low IC50. Broadly, the inhibition is the percentage by which the read-out fell short of the control. A lower inhibition goes with a weak effect.

The first assay deals with T1, rh beta tryptase (Homo sapiens, UniProt P20231).
T1 construct: purchased Promega
T1 sequence (P20231 31-275): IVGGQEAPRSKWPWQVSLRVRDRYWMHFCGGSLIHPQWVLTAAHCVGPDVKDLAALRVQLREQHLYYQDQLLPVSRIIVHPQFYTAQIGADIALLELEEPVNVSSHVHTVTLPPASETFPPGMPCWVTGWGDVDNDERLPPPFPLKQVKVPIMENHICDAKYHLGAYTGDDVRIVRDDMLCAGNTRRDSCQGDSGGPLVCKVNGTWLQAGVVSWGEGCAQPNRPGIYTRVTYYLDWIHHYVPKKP
Description: Tryptase inhibition test (cleavage of N-p-tosyl-Gly-Pro-Lys-para-nitroaniline, p-nitroaniline measured at 405 nm). Format: biochemical. Particulars: concentration at which 50% of the tryptase enzyme activity is inhibited; substrate 0.6 mM, pH 7.4, 37° C. The procedure:
The compounds according to the invention are characterised by their tryptase-inhibiting activity. This ability to inhibit tryptase was investigated using the test described below.
The measurement is carried out in Tris HCl buffer (100 mM), which additionally contains calcium (5 mM) and heparin ([…]), at pH 7.4. The standard used is rh beta tryptase which may be obtained commercially from Promega, for example. The substrate used is N-p-tosyl-Gly-Pro-Lys-para-nitroaniline in a concentration of 0.6 mM. The substrate is digested with tryptase to form p-nitroaniline which can be measured at 405 nm. Usually, an incubation period of 5 minutes and an incubation temperature of 37° C. are chosen. The enzyme activity used is 0.91 U/ml. The measurements are carried out in an Autoanalyser (Cobas Bio) made by Hofmann LaRoche. The potential inhibitory substances are used in concentrations of 10 μM in the screening, the inhibition of the tryptase being given in percent. The IC50 is determined at over 70% inhibition (concentration at which 50% of the enzyme activity is inhibited). After 5 minutes' pre-incubation of the potential inhibitory substances, the substrate is added to start the reaction, the formation of p-nitroaniline being taken as a measurement of the enzyme activity after 5 minutes, after testing the linearity.
The data obtained after the above test has been carried out (% inhibition) are assembled in Table 25 for the compounds according to the invention. The IC50 values obtained for the compounds according to the invention can be found in Table 26.
Table 26 contains the IC50 binding values obtained for the compounds according to the invention. These were measured as described above.
`CC(C)CN(CCC(=N)N)C(=O)c1ccc2c(c1)nc(CCc1ccc(C(=N)N)cc1)n2C` [Example 11, 2-[2-(4-Amidinophenyl)-ethyl]-1-methyl-benzimidazol-5-yl-carboxylic Acid-N-(2-amidinoethyl)-N-iso-butyl-amide-dihydrochloride]: the pIC50 was 7.07.

In turn, `Cn1c(CCc2ccc(C(=N)N)cc2)nc2cc(C(=O)N(CCC(=N)N)C3CCCCCCC3)ccc21` [Example 25, 2-[2-(4-Amidinophenyl)-ethyl]-1-methyl-benzimidazol-5-yl-carboxylic Acid-N-(2-amidinoethyl)-N-cyclooctyl-amide-dihydrochloride] had a pIC50 of 7.26. For `CCOCCCn1c(CCc2ccc(C(=N)N)cc2)nc2cc(C(=O)N(Cc3ccc(CN)cc3)Cc3ccc4ccccc4c3)ccc21` [Example 230, 2-[2-(4-amidinophenyl)ethyl]-1-(3-ethoxypropyl)-benzimidazol-5-yl-carboxylic acid-N-[4-(amino-methyl)-benzyl]-N-(2-naphthylmethyl)-amide], the pIC50 was 6.82. This pIC50 is 0.44 log units lower than that of the molecule before.

In the case of `CN(Cc1ccc(N(C)C)cc1)C(=O)c1ccc2c(c1)nc(CCc1ccc(C(=N)N)cc1)n2C` [Example 6, 2-[2-(4-Amidinophenyl)-ethyl]-1-methyl-benzimidazol-5-yl-carboxylic Acid-N-(4-dimethylaminobenzyl)-N-methyl-amide-hydrochloride], the pIC50 is 6.24. This pIC50 is 0.58 log units lower than that of the molecule before. Regarding `CCOCCCn1c(CCc2ccc(C(=N)N)cc2)nc2cc(C(=O)N(Cc3ccc(CN)cc3)Cc3cccc(C(F)(F)F)c3)ccc21` [Example 198, 2-[2-(4-amidinophenyl)ethyl]-1-(3-ethoxypropyl)-benzimidazol-5-yl-carboxylic acid-N-[4-(amino-methyl)-benzyl]-N-(3-trifluoromethylbenzyl)-amide], the pIC50 was 6.34.

The same assay, now with this note: inhibition of rh beta tryptase at 10 μM test substance; substrate N-p-tosyl-Gly-Pro-Lys-para-nitroaniline 0.6 mM, pH 7.4, 37° C., 5 minutes.
Turning to `CCCCN(Cc1ccc(CN)cc1)C(=O)c1ccc2c(c1)nc(CCc1ccc(C(=N)N)cc1)n2CCCN1CCOCC1` [Example 97, 2-[2-(4-amidinophenyl)ethyl]-1-[3-(morpholin-4-yl)-propyl]-benzimidazol-5-yl-carboxylic acid-N-[4-(amino-methyl)-benzyl]-N-n-butyl-amide], the inhibition at 10 µM was 56%. `COc1cccc(CN(Cc2ccc(CN)cc2)C(=O)c2ccc3c(c2)nc(CCc2ccc(C(=N)N)cc2)n3CC2CC2)c1` [Example 74, 2-[2-(4-amidinophenyl)ethyl]-1-cyclopropylmethyl-benzimidazol-5-yl-carboxylic acid-N-[4-(amino-methyl)-benzyl]-N-(3-methoxybenzyl)-amide] displayed an inhibition at 10 µM of 66%. Still for that read-out and setting: the same measure for `N=C(N)c1ccc(CCc2nc3cc(C(=O)N(CCCc4ccccc4)Cc4ccc(CN)cc4)ccc3n2CCC2CCCCC2)cc1` [Example 169, 2-[2-(4-amidinophenyl)ethyl]-1-(2-cyclohexylethyl)-benzimidazol-5-yl-carboxylic acid-N-[4-(amino-methyl)-benzyl]-N-(3-phenylpropyl)-amide]: 52%. As for `COC(=O)c1ccc(CN(Cc2ccc(CN)cc2)C(=O)c2ccc3c(c2)nc(CCc2ccc(C(=N)N)cc2)n3CCCNC(=O)Cc2ccccc2)cc1` [Example 440, 2-[2-(4-amidinophenyl)ethyl]-1-[3-(benzylcarbonylamino)-propyl]-benzimidazol-5-yl-carboxylic acid-N-[4-(amino-methyl)-benzyl]-N-[4-(methoxycarbonyl)-benzyl]-amide], the inhibition at 10 µM came to 64%. The molecule `COc1cccc(CN(Cc2ccc(CN)cc2)C(=O)c2ccc3c(c2)nc(CCc2ccc(C(=N)N)cc2)n3CCCNC(=O)Cc2ccccc2)c1` [Example 72, 2-[2-(4-amidinophenyl)ethyl]-1-[3-(benzylcarbonylamino)-propyl]-benzimidazol-5-yl-carboxylic acid-N-[4-(amino-methyl)-benzyl]-N-(3-methoxybenzyl)-amide] showed an inhibition at 10 µM of 69%.

On to `CCOCCCn1c(CCc2ccc(C(=N)N)cc2)nc2cc(C(=O)N(Cc3ccc(CN)cc3)Cc3ccc(C(=O)OC)cc3)ccc21` [Example 438, 2-[2-(4-amidinophenyl)ethyl]-1-(3-ethoxypropyl)-benzimidazol-5-yl-carboxylic acid-N-[4-(amino-methyl)-benzyl]-N-[4-(methoxycarbonyl)-benzyl]-amide], for which at 10 µM the inhibition was 59%. In turn, `N=C(N)c1ccc(CCc2nc3cc(C(=O)N(Cc4ccc(CN)cc4)CC4CCCCC4)ccc3n2CC2CC2)cc1` [Example 154, 2-[2-(4-amidinophenyl)ethyl]-1-cyclopropylmethyl-benzimidazol-5-yl-carboxylic acid-N-[4-(amino-methyl)-benzyl]-N-cyclohexylmethyl-amide] came in with an inhibition at 10 µM of 63%. As for “2-[2-(4-amidinophenyl)ethyl]-1-(4-methylbenzyl)-benzimidazol-5-yl-carboxylic acid-N-[4-(amino-methyl)-benzyl]-N-(2-pyridyl)-amide [Example 125]”, the “% Inhibition (10 μM)” value stood at 63%.

`N=C(N)c1ccc(CCc2nc3cc(C(=O)N(Cc4ccc(CN)cc4)Cc4cccc(C(F)(F)F)c4)ccc3n2CCCN2CCOCC2)cc1` [Example 209, 2-[2-(4-amidinophenyl)ethyl]-1-[3-(morpholin-4-yl)-propyl]-benzimidazol-5-yl-carboxylic acid-N-[4-(amino-methyl)-benzyl]-N-(3-trifluoromethylbenzyl)-amide]: the inhibition at 10 µM came to 61%. `N=C(N)c1ccc(CCc2nc3cc(C(=O)N(CCN)Cc4ccccc4)ccc3n2Cc2cccs2)cc1` [Example 307, 2-[2-(4-amidinophenyl)ethyl]-1-(2-thiophenyl-methyl)-benzimidazol-5-yl-carboxylic acid-N-(2-aminoethyl)-N-benzyl-amide] yielded an inhibition at 10 µM of 57%.

For the molecule `CCOCCCn1c(CCc2ccc(C(=N)N)cc2)nc2cc(C(=O)N(Cc3ccc(CN)cc3)Cc3ccc4ccccc4c3)ccc21` [Example 230, 2-[2-(4-amidinophenyl)ethyl]-1-(3-ethoxypropyl)-benzimidazol-5-yl-carboxylic acid-N-[4-(amino-methyl)-benzyl]-N-(2-naphthylmethyl)-amide], 10 µM produced 61% inhibition. `CCCCN(CCN)C(=O)c1ccc2c(c1)nc(CCc1ccc(C(=N)N)cc1)n2CCc1ccccc1` [Example 283, 2-[2-(4-amidinophenyl)ethyl)-1-(2-phenylethyl)-benzimidazol-5-yl-carboxylic acid-N-(2-aminoethyl)-N-n-butyl-amide] gave an inhibition at 10 µM of 59%. Regarding `N=C(N)c1ccc(CCc2nc3cc(C(=O)N(Cc4ccc(CN)cc4)Cc4ccc5ccccc5c4)ccc3n2CC2CCCO2)cc1` (centres unmarked) [Example 242, 2-[2-(4-amidinophenyl)ethyl]-1-(tetrahydrofuran-2-yl-methyl)-benzimidazol-5-yl-carboxylic acid-N-[4-(amino-methyl)-benzyl]-N-(2-naphthylmethyl)-amide], 10 µM produced 63% inhibition.

Regarding `CCCCN(CCCC)CCCn1c(CCc2ccc(C(=N)N)cc2)nc2cc(C(=O)N(Cc3ccc(CN)cc3)Cc3ccc4ccccc4c3)ccc21` [Example 231, 2-[2-(4-amidinophenyl)ethyl]-1-(3-di-n-butylaminopropyl)-benzimidazol-5-yl-carboxylic acid-N-[4-(amino-methyl)-benzyl]-N-(2-naphthylmethyl)-amide], testing at 10 µM gave an inhibition of 54%. For the molecule `N=C(N)c1ccc(CCc2nc3cc(C(=O)N(Cc4ccc(CN)cc4)CC4CCCCC4)ccc3n2CCCNC(=O)Cc2ccccc2)cc1` [Example 152, 2-[2-(4-amidinophenyl)ethyl]-1-[3-(benzylcarbonylamino)-propyl]-benzimidazol-5-yl-carboxylic acid-N-[4-(amino-methyl)-benzyl]-N-cyclohexylmethyl-amide], testing at 10 µM gave an inhibition of 65%.

Molecule `CCCCN(CCCC)CCCn1c(CCc2ccc(C(=N)N)cc2)nc2cc(C(=O)N(CCN)CCCC)ccc21` [Example 279, 2-[2-(4-amidinophenyl)ethyl]-1-(3-di-n-butylaminopropyl)-benzimidazol-5-yl-carboxylic acid-N-(2-aminoethyl)-N-n-butyl-amide] displayed an inhibition at 10 µM of 60%. For `CCCCN(Cc1ccc(CN)cc1)C(=O)c1ccc2c(c1)nc(CCc1ccc(C(=N)N)cc1)n2Cc1cccs1` [Example 99, 2-[2-(4-amidinophenyl)ethyl]-1-(2-thiophenyl-methyl)-benzimidazol-5-yl-carboxylic acid-N-[4-(amino-methyl)-benzyl]-N-n-butyl-amide], the inhibition at 10 µM amounted to 58%. Regarding `CCOCCCn1c(CCc2ccc(C(=N)N)cc2)nc2cc(C(=O)N(Cc3ccc(CN)cc3)Cc3cccc(C(F)(F)F)c3)ccc21` [Example 198, 2-[2-(4-amidinophenyl)ethyl]-1-(3-ethoxypropyl)-benzimidazol-5-yl-carboxylic acid-N-[4-(amino-methyl)-benzyl]-N-(3-trifluoromethylbenzyl)-amide], the inhibition at 10 µM was determined as 63%. Take `N=C(N)c1ccc(CCc2nc3cc(C(=O)N(CCN)CC4CCCCC4)ccc3n2CC2CC2)cc1` [Example 346, 2-[2-(4-amidinophenyl)ethyl]-1-cyclopropylmethyl-benzimidazol-5-yl-carboxylic acid-N-(2-aminoethyl)-N-cyclohexylmethyl-amide]: the inhibition at 10 µM came to 51%. For the molecule “2-[2-(4-amidinophenyl)ethyl]-1-(3-di-n-butylaminopropyl)-benzimidazol-5-yl-carboxylic acid-N-[4-(amino-methyl)-benzyl]-N-(2-pyridyl)-amide [Example 119]”, the “% Inhibition (10 μM)” value was 57%.

Molecule `N=C(N)c1ccc(CCc2nc3cc(C(=O)N(Cc4ccc(CN)cc4)Cc4ccc5ccccc5c4)ccc3n2CCC2CCCCC2)cc1` [Example 233, 2-[2-(4-amidinophenyl)ethyl]-1-(2-cyclohexylethyl)-benzimidazol-5-yl-carboxylic acid-N-[4-(amino-methyl)-benzyl]-N-(2-naphthylmethyl)-amide] registered an inhibition at 10 µM of 53%.
